Assay results: the supplement of paper PMC5908809

Tests used:
[1] = test system: normal primary NK cells, pool 1 (3 donors) (IL-2 2.5 ng/mL); test: drug sensitivity score (DSS) (DSS units); higher = more sensitive; extreme values may be limits of the assay; conditions: 72 h
[2] = test system: normal primary NK cells, pool 3 (3 donors) (IL-2 2.5 ng/mL); test: as above; conditions: 72 h
IMC-1 (IL-2 20 ng/mL) [3] = test: as above; conditions: 72 h
NK-YS (IL-2 2.5 ng/mL) [4] = test: as above; conditions: 72 h
SNK-6 (IL-2 2.5 ng/mL) [5] = test: as above; conditions: 72 h
[6] = test system: normal primary NK cells, pool 2 (3 donors) (IL-2 2.5 ng/mL); test: as above; conditions: 72 h
KHYG-1 (IL-2 2.5 ng/mL) [7] = test: as above; conditions: 72 h
YT (IL-2 2.5 ng/mL) [8] = test: as above; conditions: 72 h
NK-92 (IL-2 2.5 ng/mL) [9] = test: as above; conditions: 72 h
[10] = test system: normal primary NK cells, pool 1 (3 donors), resting (IL-2 0 ng/mL); test: as above; conditions: 72 h
DERL-7 (IL-2 2.5 ng/mL) [11] = test: as above; conditions: 72 h
KAI3 (IL-2 2.5 ng/mL) [12] = test: as above; conditions: 72 h
NKL (IL-2 2.5 ng/mL) [13] = test: as above; conditions: 72 h
[14] = test system: normal NK cells expanded with K562-aAPC; test: as above; conditions: 72 h; IL-2 2.5 ng/mL
Protocol: (§1)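 Drug sensitivity and resistance testing on K562-aAPC-expanded normal NK cells: 5 concentrations (10-fold steps over a 10,000-fold range), 72 h at 37 °C, viability by CellTiter-Glo normalised to DMSO and benzethonium chloride controls; DSS from the fitted curve.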

[15] = test system: normal NK cells expanded with K562-aAPC; test: percent inhibition of viability; higher = more inhibition; conditions: 72 h, IL-2 2.5 ng/mL
Protocol: as §1

[16] = test system: normal primary NK cells, pool 1 (3 donors) (IL-2 2.5 ng/mL); test: as above; conditions: 72 h
[17] = test system: normal primary NK cells, pool 3 (3 donors) (IL-2 2.5 ng/mL); test: as above; conditions: 72 h
IMC-1 (IL-2 20 ng/mL) [18] = test: as above; conditions: 72 h
NK-YS (IL-2 2.5 ng/mL) [19] = test: as above; conditions: 72 h
SNK-6 (IL-2 2.5 ng/mL) [20] = test: as above; conditions: 72 h
[21] = test system: normal primary NK cells, pool 2 (3 donors) (IL-2 2.5 ng/mL); test: as above; conditions: 72 h
KHYG-1 (IL-2 2.5 ng/mL) [22] = test: as above; conditions: 72 h
YT (IL-2 2.5 ng/mL) [23] = test: as above; conditions: 72 h
NK-92 (IL-2 2.5 ng/mL) [24] = test: as above; conditions: 72 h
[25] = test system: normal primary NK cells, pool 1 (3 donors), resting (IL-2 0 ng/mL); test: as above; conditions: 72 h
DERL-7 (IL-2 2.5 ng/mL) [26] = test: as above; conditions: 72 h
KAI3 (IL-2 2.5 ng/mL) [27] = test: as above; conditions: 72 h
NKL (IL-2 2.5 ng/mL) [28] = test: as above; conditions: 72 h

CN[C@@H]1C[C@H]2O[C@@](C)([C@@H]1OC)n1c3ccccc3c3c4c(c5c6ccccc6n2c5c31)C(=O)N[C@H]4O [UCN-01] (max concentration tested 10000 nM)
Conditions	drug sensitivity score
DERL-7 (IL-2 2.5 ng/mL) [11]	30.4
IMC-1 (IL-2 20 ng/mL) [3]	17.1
KAI3 (IL-2 2.5 ng/mL) [12]	32.4
KHYG-1 (IL-2 2.5 ng/mL) [7]	31.8
NK-92 (IL-2 2.5 ng/mL) [9]	29.2
NK-YS (IL-2 2.5 ng/mL) [4]	27.8
NKL (IL-2 2.5 ng/mL) [13]	27.4
SNK-6 (IL-2 2.5 ng/mL) [5]	34
YT (IL-2 2.5 ng/mL) [8]	20.2
[1]	23.8
[2]	22.5
[6]	24.8
[10]	18.3
[14]	28.5

percent inhibition of viability [%]
Conditions	1 nM	10 nM	100 nM	1000 nM	10000 nM
DERL-7 (IL-2 2.5 ng/mL) [26]	8.29	22.9	82.2	101	101
IMC-1 (IL-2 20 ng/mL) [18]	-7.27	-2.85	-13.4	100	101
KAI3 (IL-2 2.5 ng/mL) [27]	6.37	19.1	95.1	105	107
KHYG-1 (IL-2 2.5 ng/mL) [22]	4.96	7.2	103	110	108
NK-92 (IL-2 2.5 ng/mL) [24]	-0.38	4.42	89.2	107	109
NK-YS (IL-2 2.5 ng/mL) [19]	2.38	1.74	83.6	96.9	105
NKL (IL-2 2.5 ng/mL) [28]	-2.69	2.69	78.1	90.6	106
SNK-6 (IL-2 2.5 ng/mL) [20]	-11	34	92.7	100	101
YT (IL-2 2.5 ng/mL) [23]	4.61	17.4	28.1	93	108
[15]	0.67	13.9	76.9	100	101
[16]	4.79	0.37	51.1	95.7	99.2
[17]	-5.75	2.95	40.4	97.2	101
[21]	-7.23	6.32	58.8	95.4	99
[25]	-5.95	4.23	23.4	84.6	92.1
